Test results: patent US11219598B2, “Ophthalmic drug sustained release device” (PUBLIC UNIVERSITY CORPORATION NAGOYA CITY UNIVERSITY, priority 2016, dated 2022)

Test: Drug release test of solid fluorescein sodium-enclosed PMMA hollow device filled with SF6 gas after transplantation into rabbit
Format: in vivo
Details: fluorescence intensity meter, after initial burst, from the first week
Procedure: In order to prepare a hollow device made of a polymethyl methacrylate (PMMA) resin as an acrylic resin having low oxygen permeability, outer edge portions of optical parts of two PMMA intraocular lenses were bonded with an adhesive, as a trial model. The cavity volume was calculated to be 11.3 μL. One opening part was made without using an adhesive (arrow) (FIG. 3(A), and FIG. 4). In order to examine the drug release property, a 10% aqueous solution of sodium fluorescein as a low-molecular-weight water-soluble fluorescent dye was filled in the cavity of the PMMA hollow device and air-dried (FIG. 3(B)). The solid fluorescein sodium-enclosed PMMA hollow device was placed in 100% SF6 gas, and its hollow portion was filled with the gas (FIG. 3(B)). After a rabbit was anesthetized by intramuscular injection of Ketalar and Selactar, the pupil of the right eye was dilated with a […] hydrochloride ophthalmic solution (Mydrin-P (registered trademark), Santen Pharmaceutical Co., Ltd.). […] The residual amount of gas was measured from the photograph of the anterior ocular segment and the content of fluorescein sodium in the anterior chamber water sample was measured with a fluorescence intensity meter. […]

SMILES: O=C1OC2(c3ccc(O)cc3Oc3cc(O)ccc32)c2ccccc21 [fluorescein sodium, sodium fluorescein]
- drug release profile (fluorescein sodium content in anterior chamber water): stable sustained release
